{"source": "patent US20030065066A1", "about": "“Triazine UV absorbers comprising amino resins” (priority 1998, published 2003)", "test": "Solubility in xylenes", "format": "physicochemical", "from_the_text": "A major advantage of alkoxymethylated melamine triazine UV absorbers of the present invention is not only their improved solubility, but also their improved compatibility with coatings resins compared to the corresponding triazine precursors. For example 2,4-bis(2,4-dimethylphenyl)-6-[2-hydroxy-4-(2-hydroxyethoxy)phenyl]-1,3-5-triazine is only soluble in xylenes to the extent of about 0.5%. […] Therefore Compound A is much easier to dissolve in high solids coating resin formulations than 2,4-bis(2,4-dimethylphenyl)-6-[2-hydroxy-4-(2-hydroxyethoxy)phenyl]-1,3-5-triazine, and overcomes the problem of cratering and poor weatherability of the final coatings due to undissolved UV absorber particles."}
{"substance": "2,4-bis(2,4-dimethylphenyl)-6-[2-hydroxy-4-(2-hydroxyethoxy)phenyl]-1,3-5-triazine [Compound a]", "values": [{"measurement": "xylenes solubility", "value": "about 0.5%"}]}
